Usually Km stands for the substrate concentration at which the rate is half of its maximum.

One assay relates to T1, AuAHLA.
T1 construct: gene ahla; full ORF of 808 residues expressed untagged in Rhodococcus sp; T104, secreted; signal peptide of 34-35 aa removed
As to the kind of experiment: hydrolysis, o-phthalaldehyde fluorometric assay of released primary amine. The format is biochemical, Actinoplanes utahensis. The note with it: 0.2 M potassium phosphate pH 8.0, 45 °C. The source says: hydrolysis, o-phthalaldehyde fluorometric assay of released primary amine on AuAHLA
As for `CC1(C)S[C@@H]2[C@H](NC(=O)COc3ccccc3)C(=O)N2[C@H]1C(=O)O` [Penicillin V], the Km was determined as 472 ± 50 µM.

For `CC1(C)S[C@@H]2[C@H](NC(=O)Cc3ccccc3)C(=O)N2[C@H]1C(=O)O` [Penicillin G], the Km was 1210 ± 300 µM.

Turning to `CCCCCC(=O)N[C@@H]1C(=O)N2[C@@H]1SC(C)(C)[C@@H]2C(=O)O` [Penicillin dihidroF], the Km came out at 199 ± 20 µM.

In the case of `CCCCCCCC(=O)N[C@@H]1C(=O)N2[C@@H]1SC(C)(C)[C@@H]2C(=O)O` [Penicillin K], the Km was 675 ± 190 µM.

Still in this assay, the particulars now being: 0.2 M potassium phosphate pH 8.0, 45 °C, 20% (v/v) DMSO.
Take `CCCCCC(=O)CC(=O)N[C@H]1CCOC1=O` [3-oxo-C8-HSL, N-(3-oxooctanoyl)-L-homoserine lactone]: the Km was determined as 1040 ± 420 µM.

In the case of `CCCCCCCC(=O)N[C@H]1CCOC1=O` [C8-HSL, N-octanoyl-L-homoserine lactone], the Km is 860 ± 150 µM.

Regarding `CCCCCCCC(=O)CC(=O)N[C@H]1CCOC1=O` [3-oxo-C10-HSL, N-(3-oxodecanoyl)-L-homoserine lactone], the Km is 238 ± 86 µM.

In the case of `CCCCCCCCCC(=O)CC(=O)N[C@H]1CCOC1=O` [3-oxo-C12-HSL, N-(3-oxododecanoyl)-L-homoserine lactone], the Km was found to be 92 ± 21 µM.

On to `CCCCCCCCCC(=O)N[C@H]1CCOC1=O` [C10-HSL, N-decanoyl-L-homoserine lactone], for which the Michaelis-Menten constant (Km) was found to be 84 ± 21 µM.

Consider `CCCCCC(=O)N[C@H]1CCOC1=O` [C6-HSL, N-hexanoyl-L-homoserine lactone], for which the Km is 2250 ± 500 µM.

With `CCCCCCCCCCCC(=O)N[C@H]1CCOC1=O` [C12-HSL, N-dodecanoyl-L-homoserine lactone], the Km was 8 ± 2 µM.

Source of the values: article PMC8388760, “Novel Bifunctional Acylase from Actinoplanes utahensis: A Versatile Enzyme to Synthesize Antimicrobial Compounds and Use in Quorum Quenching Processes” (Antibiotics, 2021).
